Experiments:
Assay type in all cases: in vivo
[1] = test system: diamondback moth (Plutella xylostella); assay: Insecticidal effect on diamondback moth (Test Example 1); details: for Insecticidal effect on diamondback moth (Test Example 1), judged grade: mortality judged according to the criterion shown in Test Example 1; for Insecticidal effect, Test Example 1 / Insecticidal effect (Test Example 1), judged from mortality: diamondback moth; for Insecticidal effect (Test Example 1), judged from mortality: judged by the criterion of Test Example 1
In short: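 Oviposition by adults on Chinese cabbage seedling; immersion; air-dry; 25° C room. Count of hatched larvae at day 6 post-immersion → mortality → effect graded by criterion. Triplicate, 10 insects/group.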

[2] = test system: rice leafroller (Cnaphalocrocis medinalis); assay: Insecticidal effect on rice leafroller (Test Example 3); details: 500 ppm, 25° C., humidity 70%; for Insecticidal effect on rice leafroller (Test Example 3), judged grade / Insecticidal effect (Test Example 3), judged from mortality: rice lamina dip; for Insecticidal effect on rice leafroller (Test Example 3), judged grade: third-instar larvae; for Insecticidal effect on rice leafroller (Test Example 3), judged grade / Insecticidal effect, Test Example 3: four days after inoculation; for Insecticidal effect, Test Example 3: rice lamina immersed; for Insecticidal effect (Test Example 3), judged from mortality: 4 days after inoculation
In short: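 Insecticidal effect is judged by a predefined criterion from dead/alive counts four days after infesting air-dried lamina with third-instar larvae, kept on moistened filter paper at 25° C, 70% humidity.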

[3] = test system: common cutworm (Spodoptera Litura); assay: Insecticidal effect on common cutworm (Test Example 2); details: 500 ppm, 25° C.; for Insecticidal effect on common cutworm (Test Example 2), judged grade / Insecticidal effect (Test Example 2), judged from mortality: cabbage leaf dip; for Insecticidal effect on common cutworm (Test Example 2), judged grade: second-instar larvae; for Insecticidal effect on common cutworm (Test Example 2), judged grade / Insecticidal effect, Test Example 2: eight days after inoculation; for Insecticidal effect, Test Example 2: cabbage leaf immersed; for Insecticidal effect (Test Example 2), judged from mortality: 8 days after inoculation
In short: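 2nd-instar larvae on air-dried treatment, closed dish, 25° C; dead/alive counted at day 8. Mortality calculated, graded by criterion. 3 × 10 insects.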

[4] = mortality judged by criterion of Test Example 1
[5] = rice leafroller third-instar larvae
[6] = common cutworm second-instar larvae
[7] = third-instar larvae of rice leafroller
[8] = second-instar larvae of common cutworm
[9] = judged by the mortality criterion of Test Example 1

COc1cccc(NC(=O)c2cccc([N+](=O)[O-])c2C(=O)NC(C)C)c1C [compound 687]
Insecticidal effect on diamondback moth (Test Example 1), judged grade [1]: A (100)
Insecticidal effect on rice leafroller (Test Example 3), judged grade [2]: D (79-50)
Insecticidal effect on common cutworm (Test Example 2), judged grade [3]: D (79-50)

CC(C)NC(=O)c1c(I)cccc1C(=O)Nc1ccc2c(c1)OC(F)(F)C(F)(F)O2 [compound 1003]
Insecticidal effect, Test Example 1 [1, 4]: A (100)
Insecticidal effect, Test Example 3 [2, 5]: A (100)
Insecticidal effect, Test Example 2 [3, 6]: A (100)

CCCN(CCC)C(=O)c1c(I)cccc1C(=O)Nc1ccc(OC(F)(F)C(F)F)cc1C [compound 1158]
Insecticidal effect, Test Example 1 [1, 4]: A (100)
Insecticidal effect, Test Example 3 [2, 5]: A (100)
Insecticidal effect, Test Example 2 [3, 6]: D (79-50)

Cc1cc(SC(F)(F)C(F)(F)F)ccc1NC(=O)c1c(F)cccc1C(=O)NC(C)C [compound 906]
Insecticidal effect on diamondback moth (Test Example 1), judged grade [1]: A (100)
Insecticidal effect on rice leafroller (Test Example 3), judged grade [2]: A (100)
Insecticidal effect on common cutworm (Test Example 2), judged grade [3]: D (79-50)

CCCN(CC)C(=O)c1c(F)cccc1C(=O)Nc1ccc(C(F)(F)C(F)(F)F)cc1C [compound 1581]
Insecticidal effect (Test Example 1), judged from mortality [1]: A (100)
Insecticidal effect (Test Example 3), judged from mortality [2, 7]: A (100)
Insecticidal effect (Test Example 2), judged from mortality [3, 8]: A (100)

Cc1cc(OC(F)(F)C(F)C(F)(F)F)ccc1NC(=O)c1cccc(I)c1C(=O)NC(C)C (stereo not drawn) [compound 393]
Insecticidal effect, Test Example 1 [1, 9]: A (100)
Insecticidal effect, Test Example 3 [2, 7]: A (100)
Insecticidal effect, Test Example 2 [3, 8]: A (100)

CC(C)NC(=O)c1c(Cl)cccc1C(=O)Nc1ccc(S(=O)(=O)C(F)(F)F)cc1 [compound 1078]
Insecticidal effect, Test Example 1 [1, 4]: A (100)
Insecticidal effect, Test Example 3 [2, 5]: A (100)
Insecticidal effect, Test Example 2 [3, 6]: A (100)

COc1ccc(NC(=O)c2cccc(Cl)c2C(=O)NC(C)C)c(C)c1C [compound 124]
Insecticidal effect, Test Example 1 [1, 9]: A (100)
Insecticidal effect, Test Example 3 [2, 7]: A (100)
Insecticidal effect, Test Example 2 [3, 8]: A (100)

CC(C)NC(=O)c1c(Cl)cccc1C(=O)Nc1ccc(C(F)(F)C(F)(F)F)cc1 [compound 893]
Insecticidal effect on diamondback moth (Test Example 1), judged grade [1]: A (100)
Insecticidal effect on rice leafroller (Test Example 3), judged grade [2]: A (100)
Insecticidal effect on common cutworm (Test Example 2), judged grade [3]: A (100)

CCN(CC)C(=O)c1c(I)cccc1C(=O)Nc1ccc(OC(F)(F)C(F)F)cc1C [compound 1556]
Insecticidal effect (Test Example 1), judged from mortality [1]: A (100)
Insecticidal effect (Test Example 3), judged from mortality [2, 7]: A (100)
Insecticidal effect (Test Example 2), judged from mortality [3, 8]: A (100)

CCCNC(=O)c1c(I)cccc1C(=O)Nc1ccc(OC(F)F)cc1C [compound 1450]
Insecticidal effect (Test Example 1), judged from mortality [1]: A (100)
Insecticidal effect (Test Example 3), judged from mortality [2, 7]: A (100)
Insecticidal effect (Test Example 2), judged from mortality [3, 8]: A (100)

CC(C)NC(=O)c1c(I)cccc1C(=O)Nc1ccc(S(=O)(=O)C(F)(F)F)cc1 [compound 1079]
Insecticidal effect, Test Example 1 [1, 4]: A (100)
Insecticidal effect, Test Example 3 [2, 5]: A (100)
Insecticidal effect, Test Example 2 [3, 6]: A (100)

CC(C)NC(=O)c1cccc(I)c1C(=O)Nc1ccc(C(F)(F)C(F)(F)C(F)(F)F)cc1Cl [compound 468]
Insecticidal effect on diamondback moth (Test Example 1), judged grade [1]: A (100)
Insecticidal effect on rice leafroller (Test Example 3), judged grade [2]: B (99-90)
Insecticidal effect on common cutworm (Test Example 2), judged grade [3]: A (100)

CC(C)NC(=O)c1c(I)cccc1C(=O)Nc1ccc(C(F)(F)F)cc1Cl [compound 369]
Insecticidal effect, Test Example 1 [1, 9]: A (100)
Insecticidal effect, Test Example 3 [2, 7]: A (100)
Insecticidal effect, Test Example 2 [3, 8]: A (100)

Cc1cc(OC(F)F)ccc1NC(=O)c1ccccc1C(=O)NC(C)C [compound 58]
Insecticidal effect, Test Example 1 [1, 9]: A (100)
Insecticidal effect, Test Example 3 [2, 7]: A (100)
Insecticidal effect, Test Example 2 [3, 8]: A (100)

Cc1cc(OC(F)F)ccc1NC(=O)c1ccccc1C(=O)NC(C)(C)C [compound 1018]
Insecticidal effect, Test Example 1 [1, 4]: A (100)
Insecticidal effect, Test Example 3 [2, 5]: A (100)
Insecticidal effect, Test Example 2 [3, 6]: D (79-50)

Cc1cc(C(F)(F)C(F)(F)F)ccc1NC(=O)c1ccc(I)cc1C(=O)NC(C)C [compound 1202]
Insecticidal effect, Test Example 1 [1, 4]: A (100)
Insecticidal effect, Test Example 3 [2, 5]: A (100)
Insecticidal effect, Test Example 2 [3, 6]: A (100)

Cc1cc(OCC(F)(F)C(F)F)ccc1NC(=O)c1cccc(Br)c1C(=O)NC(C)C [compound 283]
Insecticidal effect, Test Example 1 [1, 9]: A (100)
Insecticidal effect, Test Example 3 [2, 7]: A (100)
Insecticidal effect, Test Example 2 [3, 8]: A (100)

Cc1cc(OC(F)(F)C(F)Cl)ccc1NC(=O)c1cccc(F)c1C(=O)NC(C)C (stereo not drawn) [compound 513]
Insecticidal effect on diamondback moth (Test Example 1), judged grade [1]: A (100)
Insecticidal effect on rice leafroller (Test Example 3), judged grade [2]: A (100)
Insecticidal effect on common cutworm (Test Example 2), judged grade [3]: A (100)

Cc1cc(Oc2ccc(C(F)(F)F)cn2)ccc1NC(=O)c1cccc(Cl)c1C(=O)NC(C)C [compound 158]
Insecticidal effect, Test Example 1 [1, 9]: A (100)
Insecticidal effect, Test Example 3 [2, 7]: A (100)
Insecticidal effect, Test Example 2 [3, 8]: A (100)

Cc1cc(OC(F)(F)C(F)(Cl)Cl)ccc1NC(=O)c1cccc(Cl)c1C(=O)NC(C)C [compound 145]
Insecticidal effect, Test Example 1 [1, 9]: A (100)
Insecticidal effect, Test Example 3 [2, 7]: A (100)
Insecticidal effect, Test Example 2 [3, 8]: A (100)

Cc1cc(Oc2ccc(C(F)(F)F)cn2)ccc1NC(=O)c1cccc(Br)c1C(=O)NC(C)C [compound 299]
Insecticidal effect, Test Example 1 [1, 9]: A (100)
Insecticidal effect, Test Example 3 [2, 7]: A (100)
Insecticidal effect, Test Example 2 [3, 8]: A (100)

CC(C)NC(=O)c1c(Cl)cccc1C(=O)Nc1cc2c(cc1Cl)OC(F)(F)O2 [compound 1623]
Insecticidal effect (Test Example 1), judged from mortality [1]: A (100)
Insecticidal effect (Test Example 3), judged from mortality [2, 7]: A (100)
Insecticidal effect (Test Example 2), judged from mortality [3, 8]: C (89-80)

C#CCNC(=O)c1c(I)cccc1C(=O)Nc1ccc(C(F)(F)C(F)(F)F)cc1C [compound 989]
Insecticidal effect, Test Example 1 [1, 4]: A (100)
Insecticidal effect, Test Example 3 [2, 5]: A (100)
Insecticidal effect, Test Example 2 [3, 6]: A (100)

Cc1cc(C(F)(F)C(F)(F)F)ccc1NC(=O)c1cccc(I)c1C(=O)NCc1ccccc1Cl [compound 1402]
Insecticidal effect, Test Example 1 [1, 4]: A (100)
Insecticidal effect, Test Example 3 [2, 5]: A (100)
Insecticidal effect, Test Example 2 [3, 6]: A (100)

CC(C)NC(=O)c1c(Cl)cccc1C(=O)Nc1ccc(F)c(F)c1F [compound 116]
Insecticidal effect, Test Example 1 [1, 9]: A (100)
Insecticidal effect, Test Example 3 [2, 7]: A (100)
Insecticidal effect, Test Example 2 [3, 8]: D (79-50)

Cc1cc(C(F)(F)F)ccc1NC(=O)c1c(Br)cccc1C(=O)NC(C)C [compound 316]
Insecticidal effect, Test Example 1 [1, 9]: A (100)
Insecticidal effect, Test Example 3 [2, 7]: A (100)
Insecticidal effect, Test Example 2 [3, 8]: A (100)

Cc1cc(OC(F)(F)C(F)F)ccc1NC(=O)c1c(I)cccc1C(=O)NC(C)C [compound 453]
Insecticidal effect on diamondback moth (Test Example 1), judged grade [1]: A (100)
Insecticidal effect on rice leafroller (Test Example 3), judged grade [2]: A (100)
Insecticidal effect on common cutworm (Test Example 2), judged grade [3]: D (79-50)

CCN(CC)C(=O)c1c(I)cccc1C(=O)Nc1ccc(C(F)(F)C(F)(F)F)cc1C [compound 1035]
Insecticidal effect, Test Example 1 [1, 4]: A (100)
Insecticidal effect, Test Example 3 [2, 5]: A (100)
Insecticidal effect, Test Example 2 [3, 6]: A (100)

CCN(CC)C(=O)c1c(C(=O)Nc2ccc(OC(F)(F)F)cc2C)cccc1[N+](=O)[O-] [compound 1118]
Insecticidal effect, Test Example 1 [1, 4]: A (100)
Insecticidal effect, Test Example 3 [2, 5]: A (100)
Insecticidal effect, Test Example 2 [3, 6]: A (100)

Cc1ccc(Cl)cc1NC(=O)c1cccc([N+](=O)[O-])c1C(=O)NC(C)(C)C [compound 842]
Insecticidal effect on diamondback moth (Test Example 1), judged grade [1]: A (100)
Insecticidal effect on rice leafroller (Test Example 3), judged grade [2]: D (79-50)
Insecticidal effect on common cutworm (Test Example 2), judged grade [3]: A (100)

CC(C)NC(=O)c1cc(Cl)ccc1C(=O)Nc1ccc(OC(F)(F)F)cc1 [compound 172]
Insecticidal effect, Test Example 1 [1, 9]: A (100)
Insecticidal effect, Test Example 3 [2, 7]: D (79-50)
Insecticidal effect, Test Example 2 [3, 8]: A (100)

CCc1cc(C(F)(F)C(F)(F)F)ccc1NC(=O)c1cccc(I)c1C(=O)NC(C)(C)C [compound 1475]
Insecticidal effect (Test Example 1), judged from mortality [1]: A (100)
Insecticidal effect (Test Example 3), judged from mortality [2, 7]: A (100)
Insecticidal effect (Test Example 2), judged from mortality [3, 8]: A (100)

Cc1ccc(Cl)cc1NC(=O)c1cccc([N+](=O)[O-])c1C(=O)NC(C)C [compound 665]
Insecticidal effect on diamondback moth (Test Example 1), judged grade [1]: A (100)
Insecticidal effect on rice leafroller (Test Example 3), judged grade [2]: B (99-90)
Insecticidal effect on common cutworm (Test Example 2), judged grade [3]: A (100)

CC(C)NC(=O)c1c(I)cccc1C(=O)Nc1ccc(SC(F)(F)Br)cc1 [compound 1112]
Insecticidal effect, Test Example 1 [1, 4]: A (100)
Insecticidal effect, Test Example 3 [2, 5]: A (100)
Insecticidal effect, Test Example 2 [3, 6]: A (100)

CCc1cc(C(F)(F)C(F)(F)F)ccc1NC(=O)c1cccc(Cl)c1C(=O)N(CC)CC [compound 1543]
Insecticidal effect (Test Example 1), judged from mortality [1]: A (100)
Insecticidal effect (Test Example 3), judged from mortality [2, 7]: A (100)
Insecticidal effect (Test Example 2), judged from mortality [3, 8]: A (100)
